Among the test systems are PC-3; IGROV-1; U-251; TK-10; MDA-MB-435; SK-OV-3; HCT-116; EKVX; HT-29; UO-31; Hs-578T; SF-268; OVCAR-4; SN12C; SK-MEL-5; Malme-3M; MOLT-4; T47D; OVCAR-3.
Common to all, as to assay: NCI-60 cell line screen, 48 h

The structures appear in SMILES notation.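 Cultured in 96-well plates, cells were exposed to test compound for 48 hours across five concentrations. Here, GI50 denotes the concentration required for 50% inhibition of growth.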 Calls of active or inactive are those of the source. No stated cut-off is given here; in the data, active = GI50 up to about 1.1 µM and inactive = higher. Bridge positions count the residues as written; N and C are the ends. Square brackets hold non-standard residues; d marks the D form. Peptide text beside a SMILES is read from it. * marks the point of attachment. Cbz = O=C(OCc1ccccc1)*; Dab = NCC[CH](N)C(=O)O; Bn = c1ccc(C*)cc1

Consider `COc1ccc(N2C=Nn3c(nc4sc(C)c(C)c4c3=O)C2)cc1`, for which the GI50 in the assay on PC-3, in the assay with IGROV-1, with U-251, with TK-10, in the assay with MDA-MB-435 and in the assay with SK-OV-3 was > 100 µM (inactive) each time. Besides, the GI50 with HCT-116, in the assay with EKVX, in the assay on HT-29, with UO-31, with Hs-578T and with SF-268 was > 100 µM (inactive) each time. In addition, the GI50 with OVCAR-4, in the assay on SN12C, in the assay on SK-MEL-5, with Malme-3M, with MOLT-4 and in the assay on T47D was > 100 µM (inactive) throughout.
Take `Cc1noc2nnn(-c3ccc(Cl)cc3)c(=O)c12`: the GI50 in the assay with PC-3 was 3.71 µM (inactive); in the assay with IGROV-1 it was 5.33 µM (inactive); with U-251, 4.92 µM (inactive); with TK-10 it was 9.06 µM (inactive); in the assay on MDA-MB-435, 2.95 µM (inactive); in the assay on SK-OV-3, 5.52 µM (inactive). For the same compound, the GI50 with HCT-116 is 2.89 µM (inactive); with EKVX, 7.11 µM (inactive); in the assay with HT-29 it was 4.42 µM (inactive); in the assay on UO-31, 3.61 µM (inactive); with Hs-578T it was 18.6 µM (inactive); in the assay with OVCAR-3, 2.36 µM (inactive). For the same compound, the GI50 in the assay with SF-268 is 6.98 µM (inactive); in the assay on OVCAR-4, 3.18 µM (inactive); in the assay with SN12C, 3.89 µM (inactive); in the assay on SK-MEL-5, 3.82 µM (inactive); in the assay with Malme-3M, 11.9 µM (inactive); in the assay on MOLT-4, 0.364 µM (active). In the assay on T47D, the GI50 was 0.614 µM (active).
Consider `CC1(C)[C@@H]2CC[C@]1(C)[C@H](OC(=O)CSC#N)C2`, for which the GI50 in the assay on PC-3 is > 100 µM (inactive); in the assay with IGROV-1, > 100 µM (inactive); with U-251, > 100 µM (inactive); in the assay on TK-10, > 100 µM (inactive); in the assay on MDA-MB-435, 46.2 µM (inactive); in the assay with SK-OV-3, > 100 µM (inactive). Besides, the GI50 in the assay with HCT-116 is 40.4 µM (inactive); in the assay with EKVX, > 100 µM (inactive); in the assay on HT-29, > 100 µM (inactive); in the assay on UO-31, 39.1 µM (inactive); in the assay with Hs-578T, > 100 µM (inactive); with OVCAR-3, 30.8 µM (inactive). The GI50 in the assay with SF-268, in the assay with OVCAR-4, with SN12C, in the assay with SK-MEL-5, in the assay on Malme-3M and with T47D was > 100 µM (inactive) each time.
In the case of `CC(C)CC1NC(=O)C(Cc2ccccc2)NC(=O)C(Cc2ccccc2)NC(=O)C(NC(=O)C(Cc2ccc(OCc3ccccc3)cc2)NC(=O)OCc2ccccc2)CCNC1=O` (stereo not drawn) (Cbz-Y(Bn)[Dab]FFL; lactam 2-C; configuration not given here), the GI50 in the assay with PC-3 is 68.2 µM (inactive); in the assay on IGROV-1 it was 78.5 µM (inactive); in the assay with U-251, 29.4 µM (inactive); in the assay on TK-10, 32.6 µM (inactive); in the assay on MDA-MB-435 it was 30.4 µM (inactive); in the assay on SK-OV-3, > 100 µM (inactive). For the same compound, the GI50 with HCT-116, in the assay on EKVX, in the assay on HT-29, with Hs-578T, with OVCAR-3 and with SF-268 was > 100 µM (inactive) in each case. In addition, the GI50 in the assay with OVCAR-4 is 47.2 µM (inactive); with SN12C it was > 100 µM (inactive); in the assay on SK-MEL-5, 76.4 µM (inactive); in the assay with Malme-3M it was 74.3 µM (inactive); in the assay on MOLT-4 it was 14.6 µM (inactive); with T47D, 20.4 µM (inactive).
`OCCCN(CCc1ccc(Cl)c(Cl)c1)CCN1CCCC1`: the GI50 was 48.9 µM (inactive) with PC-3; > 100 µM (inactive) in the assay with IGROV-1; 48.1 µM (inactive) in the assay with U-251; 40.6 µM (inactive) with TK-10; 22.3 µM (inactive) in the assay with MDA-MB-435; > 100 µM (inactive) in the assay with SK-OV-3. Further, the GI50 in the assay with HCT-116 is 47.9 µM (inactive); with EKVX, > 100 µM (inactive); in the assay on HT-29, 24.7 µM (inactive); with UO-31 it was 50.2 µM (inactive); in the assay on Hs-578T, 38.8 µM (inactive); with OVCAR-3 it was > 100 µM (inactive). Besides, the GI50 is 48 µM (inactive) in the assay with SF-268; > 100 µM (inactive) in the assay with OVCAR-4; 73.3 µM (inactive) with SN12C; 23.9 µM (inactive) in the assay on Malme-3M; 39.2 µM (inactive) in the assay on MOLT-4; 33.1 µM (inactive) in the assay with T47D.
As to `O=C(CCN1CCOCC1)c1ccc(Oc2ccc(F)cc2)cc1`, the GI50 was 19.2 µM (inactive) with PC-3; 19.5 µM (inactive) in the assay on IGROV-1; 53.2 µM (inactive) in the assay on U-251; 17.9 µM (inactive) in the assay on TK-10; 37.6 µM (inactive) in the assay with MDA-MB-435; > 100 µM (inactive) in the assay with SK-OV-3. Also, the GI50 with HCT-116 is 22.5 µM (inactive); with EKVX, 19 µM (inactive); in the assay on HT-29 it was 18.7 µM (inactive); in the assay on UO-31, 19.7 µM (inactive); with Hs-578T it was 19.9 µM (inactive); in the assay with OVCAR-3, 22.3 µM (inactive). Besides, the GI50 was 33.6 µM (inactive) in the assay with OVCAR-4; 30.9 µM (inactive) in the assay with SN12C; 31.3 µM (inactive) with SK-MEL-5; 20.4 µM (inactive) in the assay with Malme-3M; 23.7 µM (inactive) with MOLT-4; 18.9 µM (inactive) in the assay on T47D.
On to `Cc1c(-c2ccccc2)c(C#N)c2nnn(-c3ccccc3)c(=O)n12`, for which the GI50 with PC-3 was 78.9 µM (inactive); in the assay on IGROV-1, > 100 µM (inactive); in the assay on U-251 it was 48.8 µM (inactive); with TK-10, > 100 µM (inactive); in the assay on MDA-MB-435, > 100 µM (inactive); in the assay on SK-OV-3, > 100 µM (inactive). Moreover, the GI50 with HCT-116 is > 100 µM (inactive); in the assay on EKVX, > 100 µM (inactive); in the assay on HT-29 it was 29 µM (inactive); in the assay on UO-31 it was > 100 µM (inactive); with Hs-578T it was > 100 µM (inactive); with OVCAR-3, 85.1 µM (inactive). Also, the GI50 is > 100 µM (inactive) in the assay with SF-268; > 100 µM (inactive) in the assay on OVCAR-4; > 100 µM (inactive) with SN12C; 30.9 µM (inactive) in the assay on SK-MEL-5; 97.9 µM (inactive) in the assay on Malme-3M; 33 µM (inactive) in the assay on T47D.
With `CC(C)C1OCC(CO)CO1` (stereo not drawn), the GI50 with PC-3, in the assay with U-251, in the assay with TK-10, with MDA-MB-435, in the assay on SK-OV-3 and in the assay on HCT-116 was > 100 µM (inactive) throughout. Further, the GI50 in the assay with EKVX, in the assay with HT-29, in the assay on UO-31, in the assay on Hs-578T, in the assay with OVCAR-3 and with SF-268 was > 100 µM (inactive) throughout. Further, the GI50 in the assay on OVCAR-4, with SN12C, in the assay with SK-MEL-5, with Malme-3M, in the assay with MOLT-4 and in the assay on T47D was > 100 µM (inactive) each time.
Turning to `CC1(COS(=O)(=O)OCC2(C)COS(=O)(=O)OC2)COS(=O)(=O)OC1`, the GI50 with PC-3 was > 29.6 µM (inactive); with IGROV-1 it was 39.2 µM (inactive); in the assay on U-251 it was > 38.1 µM (inactive); in the assay with TK-10, > 74.8 µM (inactive); with MDA-MB-435 it was > 41.2 µM (inactive); in the assay with SK-OV-3, > 100 µM (inactive). Also, the GI50 is > 52.6 µM (inactive) in the assay on HCT-116; > 71.1 µM (inactive) in the assay with EKVX; > 32.6 µM (inactive) in the assay on HT-29; > 41.2 µM (inactive) in the assay with UO-31; > 100 µM (inactive) with Hs-578T; > 100 µM (inactive) in the assay on OVCAR-3. The GI50 in the assay with SF-268 was > 100 µM (inactive); in the assay on OVCAR-4, > 60.8 µM (inactive); in the assay on SK-MEL-5, > 69.2 µM (inactive); in the assay with Malme-3M, > 83 µM (inactive); in the assay with T47D it was > 20.9 µM (inactive).
`CCCCCCCCCCCCCCN` [TETRADECYLAMINE]: the GI50 in the assay on PC-3, with IGROV-1, with U-251, with TK-10, in the assay with MDA-MB-435 and in the assay with SK-OV-3 was > 100 µM (inactive) each time. For the same compound, the GI50 with HCT-116, with EKVX, in the assay with HT-29, in the assay with Hs-578T, in the assay with OVCAR-3 and in the assay on SF-268 was > 100 µM (inactive) throughout. The GI50 with OVCAR-4, with SN12C, with SK-MEL-5, with Malme-3M, in the assay with MOLT-4 and in the assay with T47D was > 100 µM (inactive) each time.
Consider `Cn1c(=O)c2c(ncn2CCSS(=O)(=O)O)n(C)c1=O`, for which the GI50 was > 100 µM (inactive) with PC-3; > 100 µM (inactive) in the assay with IGROV-1; 45.8 µM (inactive) in the assay with U-251; > 100 µM (inactive) in the assay on TK-10; > 100 µM (inactive) in the assay with MDA-MB-435; > 100 µM (inactive) in the assay with SK-OV-3. Further, the GI50 with HCT-116 was > 100 µM (inactive); with EKVX, 72.6 µM (inactive); in the assay with HT-29, 99.5 µM (inactive); in the assay on UO-31, > 100 µM (inactive); in the assay on Hs-578T it was 74.5 µM (inactive); in the assay on OVCAR-3, > 100 µM (inactive). Also, the GI50 in the assay on SF-268, in the assay with OVCAR-4, in the assay with SN12C, with SK-MEL-5, with Malme-3M and in the assay with T47D was > 100 µM (inactive) throughout.

The record behind these values is ChEMBL document CHEMBL1201862, “PubChem BioAssay data set” (2004).
